Results reported in patent US20080200393A1, “Method and Composition For Treating Angiogenesis and For Preventing Cancer Progression and Metastasis Comprising a Prostate Secretory Protein (Psp94) Family Member” (Ambrillia Biopharma Inc., priority 2004, published 2008).
Where no end group is shown, it is not given here. The star is where a group is joined. Acm = CC(=O)NC*

What was measured:
proMMP-2 = experiment: Gelatin zymography of HUVEC conditioned media; assay type: cell-based, Human; settings: HUVEC, serum-free media
Experimental: Zymography. Zymography is a technique generally used to analyze the activity of matrix metalloproteinases (MMPs) in biological samples. It involves the electrophoretic separation of proteins under denaturing (Sodium Dodecyl Sulfate (SDS)) but non-reducing conditions through a polyacrylamide gel containing gelatin (for example, 10% gel containing 1 mg/ml gelatin for MMP-9 and MMP-2 assays). The resolved proteins are re-natured by exchanging SDS with a non-ionic detergent such as Triton X-100 and the gel is incubated in an incubation buffer for activation of MMP-2 and MMP-9 (for example at 37° C. for 18 hrs). The gel is stained with Coomassie blue and the MMP-2 and MMP-9 bands may be visualized as clear bands against a blue background (i.e., the MMPs degrade the gelatin and are visualized as clear bands; pro MMP-2 is 68 kDa and pro-MMP-9 is 92 kDa). These bands can be quantified using densitometry. For example, prior to stimulation, quiescent HUVEC were serum-starved for 16 h in the presence or absence of PCK3145 or PD98059 and then stimulated with VEGF. The conditioned media were collected 24 h after stimulation, and clarified by centrifugation. Identical volume of conditioned media were mixed with non reducing Laemmli sample buffer and subjected to 7.5% SDS-polyacrylamide gels containing 1 mg/ml gelatin (Sigma). The gels were then incubated for 30 min at room temperature twice in 2.5% (v/v) Triton X-100 and rinsed five times in doubly distilled water. The gels were incubated at 37° C. for a further 18 h in 200 mM NaCl/5 mM CaCl2/0.02% (v/v) Brij-35/50 mM Tris/HCl buffer (pH 7.6), then stained with 0.1% Coomassie Brilliant Blue R-250, followed by destaining in 10% (v/v) acetic acid/30% (v/v) methanol in water. Gelatinolytic activity was detected as unstained bands on a blue background.
The effect of the PCK3145 derivative (SEQ ID NO.:7) on MMP extracellular levels was thus assessed by gelatin-zymography in the conditioned media of serum-starved HUVEC. After 16 hours of starvation, HUVEC were stimulated with VEGF in the presence or not of the PCK3145 derivative. […]

ERK [1] = experiment: Intrinsic effect on ERK phosphorylation (Western blot); assay type: cell-based
Experimental: The induction of the MAPK pathway by the PCK3145 derivative is further confirmed by the rapid and transient induction of ERK phosphorylation between 5-10 minutes (FIG. 8B) and is shown to be dose-dependent (FIG. 8C). Finally, the effects of the PCK3145 derivative were also compared to those of a scrambled peptide.

HUVEC = HUVEC migration assay (modified Boyden chambers, gelatin-coated filters); assay type: cell-based, Human; settings: 300 μg/ml
Experimental: Migration Assays. Transwells filters (8-μm pore size; Costar, Cambridge, Mass.) were pre-coated with 0.5% gelatin/PBS for 24 h at 4° C. The transwells were then washed with PBS and assembled in 24-well plates. The upper chamber of each transwell was filled with 100 μl of HUVEC (1×10^6 cells/ml) and cells were allowed to adhere for 1 h. Cells were then treated for 2 h by adding 100 μl of 2-fold concentrated drug solution prepared in serum-free medium into the upper chamber and 600 μl of the drug solution into the lower chamber. Migration was initiated by adding VEGF (10 ng/ml), or S1P (1 μM) to the lower chamber. The plate was placed at 37° C. in 5% CO2/95% air for 4 h. Cells that had migrated to the lower surface of the filters were fixed with 10% formalin phosphate and stained with 0.1% Crystal Violet/20% (v/v) methanol. The migration was quantified using computer-assisted imaging and data are expressed as the average density of migrated cells per four fields (magnification×50).
Cells were plated onto gelatin-coated filters inserted in modified Boyden chemotactic chambers. The effect of PCK3145 on basal migration and on VEGF-induced migration was monitored by the number of cells that had migrated comparatively to untreated control cells. HUVEC were dislodged from the flasks by trypsinization, washed and resuspended in serum-free media. Cells were placed onto gelatin-coated filters inserted in chambers and incubated at 37° C., 5% CO2 for 30 min to allow adequate anchoring to the filters. The monolayers were then exposed to serum-free media containing PCK3145 (300 μg/ml) added within the upper and lower compartment of the chambers. After 2 h, VEGF (50 ng/ml) was added in the lower chamber as a chemoattractant. Cell migration was allowed to proceed for another 3 h. Filters were then fixed, stained, and the migrated cells quantified by microscopy as described in the Methods section. […] The effect of. PCK on S1P-induced HUVEC migration was also measured, but no inhibition was observed (not shown) in this particular assay.

ERK [2] = experiment: Induced ERK phosphorylation in HUVEC (Western blot); assay type: cell-based, Human
Experimental: Cell culture. Human umbilical vein endothelial cells (HUVEC) and pulmonary aortic smooth muscle cells (PASMC) were obtained from Clonetics and maintained in endothelial cell basal medium-2 (EBM-2; Clonetics) and smooth muscle medium-2 (SmGM-2; Clonetics), respectively. Cells were cultured at 37° C. under a humidified atmosphere containing 5% CO2. For experimental purposes, cells were plated in 8 100-mm plastic dishes at 5,000 cells/cm^2 and were grown to confluence before overnight serum starvation. Cells were treated with vehicle or with a PCK3145 derivative diluted in 0.1 N NaOH, and stimulated with 50-100 ng/ml VEGF or PDGF, with 10 ng/ml of bFGF (basic fibroblast growth factor) or with 1 μM S1P (sphingosine-1-phosphate).
(§1) Immunoprecipitation and immunoblotting procedures. After treatment, cells were washed once with phosphate-buffered saline (PBS) containing 1 mM sodium orthovanadate and were incubated in the same medium for 1 h at 4° C. The cells were solubilized on ice in lysis buffer (150 mM NaCl, 10 mM Tris-HCl, pH 7.4, 1 mM EDTA, 1 mM EGTA, 0.5% Nonidet P-40, 1% Triton X-100) containing 1 mM sodium orthovanadate. The cells were then scraped from the culture dishes and the resulting lysates were clarified by centrifugation at 10,000 g for 10 min; Protein concentrations were determined using the micro bicinchoninic acid method (Pierce). For immunoprecipitation studies, lysates were clarified by a 1 h incubation at 4° C. with a mixture of Protein A/Protein G Sepharose beads. After removal of the Sepharose beads by low-speed centrifugation, identical amounts of protein (200 μg) from each sample were transferred to fresh tubes and incubated in lysis buffer overnight at 4° C. in the presence of 2 μg/ml of specific antibodies. Immunocomplexes were collected by incubating the mixture with 25 μl (50% suspension) of Protein A- (rabbit primary antibody) or Protein G- (mouse primary antibody) Sepharose beads, for 2 h. Nonspecifically-bound material was removed by washing the beads three times in 1 ml of lysis buffer containing 1 mM sodium orthovanadate, and bound material was solubilized in 25 μl of two-fold concentrated Laemmli sample buffer (125 mM Tris-HCl (pH 6.8), 20% glycerol, 4% SDS, 10% β-mercaptoethanol, and 0.00125% bromphenol blue), boiled 5 min, and resolved by SDS-PAGE. The proteins were transferred onto polyvinylidene difluoride (PVDF) membranes, blocked 1 h at room temperature with Tris-buffered saline/Tween 20 (147 mM NaCl, 20 mM Tris/HCl, pH 7.5, and 0.1% Tween 20) containing 2% bovine serum albumin and incubated overnight at 4° C. with primary antibody. […] The immunoreactive bands were quantified by scanning densitometry (Molecular Dynamics).
VEGF is a strong activator of ERKs (Extracellular-signal-Regulated protein Kinases) 1 and 2 via VEGF receptor 2. In order to test the ability of the PCK3145 derivative in potentially antagonizing VEGF-mediated ERK phosphorylation, serum-starved quiescent endothelial cells (HUVEC) were incubated with vehicle (phosphate-buffered saline (PBS) pH 7.4) or PCK3145 derivative (300 μg/ml) for 24 h and then stimulated with VEGF, bFGF (basic Fibroblast Growth Factor) or S1P (sphingosine-1-phosphate). Cells were washed with PBS containing NaF/Na3VO4 and incubated in the same medium buffer for 1 h at 4° C. The cells were scraped from the culture dishes and the resulting lysates clarified by centrifugation. Western blotting and immunodetection using anti-phosphoERK and anti-ERK antibodies was then performed.

VEGFR-2 = target: T1, VEGFR-2 (Homo sapiens, UniProt P35968); experiment: VEGF-induced VEGFR-2 phosphorylation in HUVEC (immunoprecipitation, Western blot); assay type: cell-based
T1 construct: host or cells: HUVEC
T1 sequence (P35968 20-1356): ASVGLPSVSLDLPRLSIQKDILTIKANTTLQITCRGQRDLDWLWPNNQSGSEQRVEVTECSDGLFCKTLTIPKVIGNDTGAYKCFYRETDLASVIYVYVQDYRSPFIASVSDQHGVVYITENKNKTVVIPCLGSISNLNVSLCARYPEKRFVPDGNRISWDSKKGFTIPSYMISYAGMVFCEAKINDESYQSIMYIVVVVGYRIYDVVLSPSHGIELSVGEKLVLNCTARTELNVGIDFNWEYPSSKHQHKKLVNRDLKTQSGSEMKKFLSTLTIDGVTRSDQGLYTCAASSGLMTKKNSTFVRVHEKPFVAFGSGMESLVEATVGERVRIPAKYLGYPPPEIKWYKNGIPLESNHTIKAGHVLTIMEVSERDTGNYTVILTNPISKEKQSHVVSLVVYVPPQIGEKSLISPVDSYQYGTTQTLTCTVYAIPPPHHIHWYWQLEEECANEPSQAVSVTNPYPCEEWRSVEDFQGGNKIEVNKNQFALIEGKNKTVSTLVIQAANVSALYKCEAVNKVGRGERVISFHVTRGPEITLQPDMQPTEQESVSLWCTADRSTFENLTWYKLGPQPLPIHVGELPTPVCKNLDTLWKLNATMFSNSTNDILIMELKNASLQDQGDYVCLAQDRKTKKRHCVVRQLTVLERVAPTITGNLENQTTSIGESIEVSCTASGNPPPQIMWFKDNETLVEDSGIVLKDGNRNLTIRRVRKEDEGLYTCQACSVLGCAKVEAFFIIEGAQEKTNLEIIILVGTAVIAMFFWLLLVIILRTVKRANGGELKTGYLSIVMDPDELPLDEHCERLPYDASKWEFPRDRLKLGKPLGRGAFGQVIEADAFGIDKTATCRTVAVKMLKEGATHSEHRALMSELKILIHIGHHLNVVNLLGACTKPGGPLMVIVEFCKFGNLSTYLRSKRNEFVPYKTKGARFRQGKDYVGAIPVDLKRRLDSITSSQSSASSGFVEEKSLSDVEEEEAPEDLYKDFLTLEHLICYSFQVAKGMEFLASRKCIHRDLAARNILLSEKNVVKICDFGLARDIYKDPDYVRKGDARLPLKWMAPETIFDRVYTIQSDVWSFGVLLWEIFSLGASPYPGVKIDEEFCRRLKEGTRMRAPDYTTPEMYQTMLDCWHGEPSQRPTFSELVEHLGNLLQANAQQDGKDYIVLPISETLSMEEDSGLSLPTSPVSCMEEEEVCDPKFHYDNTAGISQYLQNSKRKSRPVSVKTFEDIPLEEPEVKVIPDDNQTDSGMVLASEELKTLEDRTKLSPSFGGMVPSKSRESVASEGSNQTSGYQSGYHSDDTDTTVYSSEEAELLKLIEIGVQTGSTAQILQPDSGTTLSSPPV
Experimental: as §1, with “SDS-PAGE.” for “SDS-PAGE. The proteins were transferred onto polyvinylidene difluoride (PVDF) membranes, blocked 1 h at room temperature with Tris-buffered saline/Tween 20 (147 mM NaCl, 20 mM Tris/HCl, pH 7.5, and 0.1% Tween 20) containing 2% bovine serum albumin and incubated overnight at 4° C. with primary antibody.”
The multifunctionality of VEGF at the cellular level results from its ability to initiate a diverse, complex and integrated network of signaling pathways via its major receptor, VEGFR-2. […] After each treatment, equal amounts of protein were immunoprecipitated with anti-VEGFR-2 polyclonal antibodies and analysed by Western blotting.

tumor cells = settings: U.S. Pat. No. 5,428,011; cited from earlier work
skeletal metastasis = settings: WO03/039576; cited from earlier work
FSH = settings: Thakur et al., 1981; cited from earlier work
FSH receptor = target: T2, FSH receptor (Homo sapiens, UniProt P23945); settings: testicular membrane preparations; Vijayalakshmi et al., 1981; cited from earlier work
T2 construct: host or cells: testicular membrane preparations
T2 sequence (P23945 18-695): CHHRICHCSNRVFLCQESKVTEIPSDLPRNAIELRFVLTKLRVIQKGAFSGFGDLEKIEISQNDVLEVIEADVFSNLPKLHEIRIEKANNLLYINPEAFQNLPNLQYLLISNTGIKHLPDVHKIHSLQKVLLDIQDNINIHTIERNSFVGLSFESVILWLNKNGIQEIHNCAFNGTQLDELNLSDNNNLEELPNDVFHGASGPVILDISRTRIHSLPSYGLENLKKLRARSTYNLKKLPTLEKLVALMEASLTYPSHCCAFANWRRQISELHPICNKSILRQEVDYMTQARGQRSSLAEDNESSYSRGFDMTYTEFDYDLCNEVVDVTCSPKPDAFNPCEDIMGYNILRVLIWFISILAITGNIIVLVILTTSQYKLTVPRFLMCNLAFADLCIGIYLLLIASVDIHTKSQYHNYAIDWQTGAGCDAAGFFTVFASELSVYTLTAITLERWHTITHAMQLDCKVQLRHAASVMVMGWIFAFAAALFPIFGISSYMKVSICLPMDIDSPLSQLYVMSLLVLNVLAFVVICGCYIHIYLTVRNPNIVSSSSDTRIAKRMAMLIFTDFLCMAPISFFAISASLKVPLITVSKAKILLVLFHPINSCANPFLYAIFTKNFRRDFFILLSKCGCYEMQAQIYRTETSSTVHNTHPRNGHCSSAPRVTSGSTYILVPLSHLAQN

In the case of COc1cccc(-c2cc(=O)c3ccccc3o2)c1N [PD98059, reference compound], the “VEGF-induced proMMP-2 extracellular levels” value (proMMP-2) is reported as “significantly decreased” and the “induction of ERK phosphorylation by the PCK3145 derivative” value (ERK [1]; MAPK inhibitor added) is reported as “antagonized”.

For “EWQTDNCETCTCYET (cysteine pairing not given here) [PCK3145, PSP94 fragment, 15 amino acids]”, the basal cell migration (HUVEC) was “no significant effect” and the VEGF-induced cell migration (HUVEC; VEGF 50 ng/ml) was “no significant effect”.

In the case of “TC(Acm)ENC(Acm)TETQWC(Acm)ETDY [scrambled peptide, reference compound]”, the “VEGF-induced ERK phosphorylation, negative control” value (ERK [2]) is reported as “lack of effect”, the “VEGF-induced VEGFR-2 phosphorylation, negative control” value (VEGFR-2) is reported as “lack of effect” and the “induction of ERK phosphorylation” value (ERK [1]; compared to the PCK3145 derivative) is reported as “unable to induce”.

B1: PSP94: Prostate secretory protein of human seminal fluid, 10.7 kDa, 10 cysteine residues; wild type, 94 amino acids (protein, UniProt P08118 21-114, looked up)
Beta-microseminoprotein: SCYFIPNEGVPGDSTRKCMDLKGNKHPINSEWQTDNCETCTCYETEISCCTLVSTPVGYDKDNCQRIFKKEDCKYIVVEKKDPKKTCSVSEWII
For B1, the “growth of tumor cells” value (tumor cells) is given as “inhibits”, the “development of skeletal metastasis” value (skeletal metastasis) is given as “reduces” and the FSH levels (FSH) is given as “lower”. The “binding of FSH to its receptor” value (FSH receptor) was “interfere”.
